Data from patent publication US10792289B2 (Horizon Orphan LLC, priority 2009, dated 2020).
Where two headings read alike, the source gives them in different places.

Test system: P. aeruginosa isolates
Experiment: Phase 2 study: MIC of P. aeruginosa isolates to levofloxacin
Assay type: cell-based
Details: Pseudomonas aeruginosa
Protocol: Efficacy was evaluated by microbiologic assessment of sputum samples, time to need for anti-pseudomonal antimicrobials, the Cystic Fibrosis Questionaire-Revised (CFQ-R), and pulmonary function tests. […] Pair-wise comparisons between all the treatment arms were conducted as secondary analyses.

## C[C@H]1COc2c(N3CCN(C)CC3)c(F)cc3c(=O)c(C(=O)O)cn1c23 [Levofloxacin, levofloxacin]
24 h, EE, 120 mg QD, Day 1, read-out: MIC50 (all organisms)
  MIC50: 4 µg/mL
24 h, EE, 120 mg QD, Day 1, read-out: MIC90 (all organisms)
  MIC90: 32 µg/mL
24 h, EE, 240 mg BID, Day 1, read-out: MIC50 (all organisms)
  MIC50: 4 µg/mL
24 h, EE, 240 mg BID, Day 1, read-out: MIC90 (all organisms)
  MIC90: 16 µg/mL
24 h, EE, 240 mg QD, Day 1, read-out: MIC50 (all organisms)
  MIC50: 4 µg/mL
24 h, EE, 240 mg QD, Day 1, read-out: MIC90 (all organisms)
  MIC90: 16 µg/mL
24 h, EE, combined 240 mg QD and BID, Day 1, read-out: MIC50 (all organisms)
  MIC50: 4 µg/mL
24 h, EE, combined 240 mg QD and BID, Day 1, read-out: MIC90 (all organisms)
  MIC90: 16 µg/mL
24 h, MITT, 120 mg QD, Day 1, read-out: Highest MIC, MIC50
  MIC50: 8 µg/mL
24 h, MITT, 120 mg QD, Day 1, read-out: Highest MIC, MIC90
  MIC90: 32 µg/mL
24 h, MITT, 120 mg QD, Day 1, read-out: MIC50 (all organisms)
  MIC50: 4 µg/mL
24 h, MITT, 120 mg QD, Day 1, read-out: MIC90 (all organisms)
  MIC90: 32 µg/mL
24 h, MITT, 240 mg BID, Day 1, read-out: Highest MIC, MIC50
  MIC50: 6 µg/mL
24 h, MITT, 240 mg BID, Day 1, read-out: Highest MIC, MIC90
  MIC90: 32 µg/mL
24 h, MITT, 240 mg BID, Day 1, read-out: MIC50 (all organisms)
  MIC50: 4 µg/mL
24 h, MITT, 240 mg BID, Day 1, read-out: MIC90 (all organisms)
  MIC90: 16 µg/mL
24 h, MITT, 240 mg QD, Day 1, read-out: Highest MIC, MIC50
  MIC50: 4 µg/mL
24 h, MITT, 240 mg QD, Day 1, read-out: Highest MIC, MIC90
  MIC90: 32 µg/mL
24 h, MITT, 240 mg QD, Day 1, read-out: MIC50 (all organisms)
  MIC50: 4 µg/mL
24 h, MITT, 240 mg QD, Day 1, read-out: MIC90 (all organisms)
  MIC90: 16 µg/mL
24 h, MITT, combined 240 mg QD and BID, Day 1, read-out: Highest MIC, MIC50
  MIC50: 4 µg/mL
24 h, MITT, combined 240 mg QD and BID, Day 1, read-out: Highest MIC, MIC90
  MIC90: 32 µg/mL
24 h, MITT, combined 240 mg QD and BID, Day 1, read-out: MIC50 (all organisms)
  MIC50: 4 µg/mL
24 h, MITT, combined 240 mg QD and BID, Day 1, read-out: MIC90 (all organisms)
  MIC90: 16 µg/mL
24 h, Table 14, EE, 120 mg QD, Day 1, read-out: MIC50 (all organisms)
  MIC50: 8 µg/mL
24 h, Table 14, EE, 120 mg QD, Day 1, read-out: MIC90 (all organisms)
  MIC90: 32 µg/mL
24 h, Table 14, EE, 240 mg BID, Day 1, read-out: MIC50 (all organisms)
  MIC50: 6 µg/mL
24 h, Table 14, EE, 240 mg BID, Day 1, read-out: MIC90 (all organisms)
  MIC90: 32 µg/mL
24 h, Table 14, EE, 240 mg QD, Day 1, read-out: MIC50 (all organisms)
  MIC50: 4 µg/mL
24 h, Table 14, EE, 240 mg QD, Day 1, read-out: MIC90 (all organisms)
  MIC90: 32 µg/mL
24 h, Table 14, EE, combined 240 mg QD and BID, Day 1, read-out: MIC50 (all organisms)
  MIC50: 4 µg/mL
24 h, Table 14, EE, combined 240 mg QD and BID, Day 1, read-out: MIC90 (all organisms)
  MIC90: 32 µg/mL
168 h, EE, 120 mg QD, Day 7, read-out: MIC50 (all organisms)
  MIC50: 4 µg/mL
168 h, EE, 120 mg QD, Day 7, read-out: MIC90 (all organisms)
  MIC90: 16 µg/mL
168 h, EE, 240 mg BID, Day 7, read-out: MIC50 (all organisms)
  MIC50: 4 µg/mL
168 h, EE, 240 mg BID, Day 7, read-out: MIC90 (all organisms)
  MIC90: 16 µg/mL
168 h, EE, 240 mg QD, Day 7, read-out: MIC50 (all organisms)
  MIC50: 2 µg/mL
168 h, EE, 240 mg QD, Day 7, read-out: MIC90 (all organisms)
  MIC90: 16 µg/mL
168 h, EE, combined 240 mg QD and BID, Day 7, read-out: MIC50 (all organisms)
  MIC50: 4 µg/mL
168 h, EE, combined 240 mg QD and BID, Day 7, read-out: MIC90 (all organisms)
  MIC90: 16 µg/mL
168 h, MITT, 120 mg QD, Day 7, read-out: Highest MIC, MIC50
  MIC50: 8 µg/mL
168 h, MITT, 120 mg QD, Day 7, read-out: Highest MIC, MIC90
  MIC90: 32 µg/mL
168 h, MITT, 120 mg QD, Day 7, read-out: MIC50 (all organisms)
  MIC50: 4 µg/mL
168 h, MITT, 120 mg QD, Day 7, read-out: MIC90 (all organisms)
  MIC90: 16 µg/mL
168 h, MITT, 240 mg BID, Day 7, read-out: Highest MIC, MIC50
  MIC50: 6 µg/mL
168 h, MITT, 240 mg BID, Day 7, read-out: Highest MIC, MIC90
  MIC90: 32 µg/mL
168 h, MITT, 240 mg BID, Day 7, read-out: MIC50 (all organisms)
  MIC50: 4 µg/mL
168 h, MITT, 240 mg BID, Day 7, read-out: MIC90 (all organisms)
  MIC90: 16 µg/mL
168 h, MITT, 240 mg QD, Day 7, read-out: Highest MIC, MIC50
  MIC50: 4 µg/mL
168 h, MITT, 240 mg QD, Day 7, read-out: Highest MIC, MIC90
  MIC90: 16 µg/mL
168 h, MITT, 240 mg QD, Day 7, read-out: MIC50 (all organisms)
  MIC50: 4 µg/mL
168 h, MITT, 240 mg QD, Day 7, read-out: MIC90 (all organisms)
  MIC90: 16 µg/mL
168 h, MITT, combined 240 mg QD and BID, Day 7, read-out: Highest MIC, MIC50
  MIC50: 4 µg/mL
168 h, MITT, combined 240 mg QD and BID, Day 7, read-out: Highest MIC, MIC90
  MIC90: 16 µg/mL
168 h, MITT, combined 240 mg QD and BID, Day 7, read-out: MIC50 (all organisms)
  MIC50: 4 µg/mL
168 h, MITT, combined 240 mg QD and BID, Day 7, read-out: MIC90 (all organisms)
  MIC90: 16 µg/mL
168 h, Table 14, EE, 120 mg QD, Day 7, read-out: MIC50 (all organisms)
  MIC50: 8 µg/mL
168 h, Table 14, EE, 120 mg QD, Day 7, read-out: MIC90 (all organisms)
  MIC90: 32 µg/mL
168 h, Table 14, EE, 240 mg BID, Day 7, read-out: MIC50 (all organisms)
  MIC50: 4 µg/mL
168 h, Table 14, EE, 240 mg BID, Day 7, read-out: MIC90 (all organisms)
  MIC90: 32 µg/mL
168 h, Table 14, EE, 240 mg QD, Day 7, read-out: MIC50 (all organisms)
  MIC50: 4 µg/mL
168 h, Table 14, EE, 240 mg QD, Day 7, read-out: MIC90 (all organisms)
  MIC90: 16 µg/mL
168 h, Table 14, EE, combined 240 mg QD and BID, Day 7, read-out: MIC90 (all organisms)
  MIC90: 32 µg/mL
168 h, read-out: Highest MIC to levofloxacin, mean (SD), MITT, 120 mg QD, Day 7
  MIC: 15.2 µg/mL
168 h, read-out: Highest MIC to levofloxacin, mean (SD), MITT, 240 mg BID, Day 7
  MIC: 13 µg/mL
168 h, read-out: Highest MIC to levofloxacin, mean (SD), MITT, 240 mg QD, Day 7
  MIC: 10.5 µg/mL
168 h, read-out: Highest MIC to levofloxacin, mean (SD), MITT, combined 240 mg QD and BID, Day 7
  MIC: 11.8 µg/mL
168 h, read-out: MIC to levofloxacin (all organisms), mean (SD), EE, 120 mg QD, Day 7
  MIC: 9.9 µg/mL
168 h, read-out: MIC to levofloxacin (all organisms), mean (SD), EE, 240 mg BID, Day 7
  MIC: 8.8 µg/mL
168 h, read-out: MIC to levofloxacin (all organisms), mean (SD), EE, 240 mg QD, Day 7
  MIC: 6.8 µg/mL
168 h, read-out: MIC to levofloxacin (all organisms), mean (SD), EE, combined 240 mg QD and BID, Day 7
  MIC: 7.8 µg/mL
168 h, read-out: MIC to levofloxacin (all organisms), mean (SD), MITT, 120 mg QD, Day 7
  MIC: 9.6 µg/mL
168 h, read-out: MIC to levofloxacin (all organisms), mean (SD), MITT, 240 mg BID, Day 7
  MIC: 8.6 µg/mL
168 h, read-out: MIC to levofloxacin (all organisms), mean (SD), MITT, 240 mg QD, Day 7
  MIC: 6.7 µg/mL
168 h, read-out: MIC to levofloxacin (all organisms), mean (SD), MITT, combined 240 mg QD and BID, Day 7
  MIC: 7.6 µg/mL
168 h, read-out: MIC to levofloxacin (all organisms), mean (SD), Table 14, EE, 120 mg QD, Day 7
  MIC: 15.7 µg/mL
168 h, read-out: MIC to levofloxacin (all organisms), mean (SD), Table 14, EE, 240 mg BID, Day 7
  MIC: 13.1 µg/mL
168 h, read-out: MIC to levofloxacin (all organisms), mean (SD), Table 14, EE, 240 mg QD, Day 7
  MIC: 10.9 µg/mL
168 h, read-out: MIC to levofloxacin (all organisms), mean (SD), Table 14, EE, combined 240 mg QD and BID, Day 7
  MIC: 11.9 µg/mL
336 h, EE, 120 mg QD, Day 14, read-out: MIC50 (all organisms)
  MIC50: 4 µg/mL
336 h, EE, 120 mg QD, Day 14, read-out: MIC90 (all organisms)
  MIC90: 37 µg/mL
336 h, EE, 240 mg BID, Day 14, read-out: MIC50 (all organisms)
  MIC50: 4 µg/mL
336 h, EE, 240 mg BID, Day 14, read-out: MIC90 (all organisms)
  MIC90: 16 µg/mL
336 h, EE, 240 mg QD, Day 14, read-out: MIC50 (all organisms)
  MIC50: 4 µg/mL
336 h, EE, 240 mg QD, Day 14, read-out: MIC90 (all organisms)
  MIC90: 16 µg/mL
336 h, EE, combined 240 mg QD and BID, Day 14, read-out: MIC50 (all organisms)
  MIC50: 4 µg/mL
336 h, EE, combined 240 mg QD and BID, Day 14, read-out: MIC90 (all organisms)
  MIC90: 16 µg/mL
336 h, MITT, 120 mg QD, Day 14, read-out: Highest MIC, MIC50
  MIC50: 8 µg/mL
336 h, MITT, 120 mg QD, Day 14, read-out: Highest MIC, MIC90
  MIC90: 32 µg/mL
336 h, MITT, 120 mg QD, Day 14, read-out: MIC50 (all organisms)
  MIC50: 6 µg/mL
336 h, MITT, 120 mg QD, Day 14, read-out: MIC90 (all organisms)
  MIC90: 32 µg/mL
336 h, MITT, 240 mg BID, Day 14, read-out: Highest MIC, MIC50
  MIC50: 6 µg/mL
336 h, MITT, 240 mg BID, Day 14, read-out: Highest MIC, MIC90
  MIC90: 32 µg/mL
336 h, MITT, 240 mg BID, Day 14, read-out: MIC50 (all organisms)
  MIC50: 4 µg/mL
336 h, MITT, 240 mg BID, Day 14, read-out: MIC90 (all organisms)
  MIC90: 16 µg/mL
336 h, MITT, 240 mg QD, Day 14, read-out: Highest MIC, MIC50
  MIC50: 8 µg/mL
336 h, MITT, 240 mg QD, Day 14, read-out: Highest MIC, MIC90
  MIC90: 16 µg/mL
336 h, MITT, 240 mg QD, Day 14, read-out: MIC50 (all organisms)
  MIC50: 4 µg/mL
336 h, MITT, 240 mg QD, Day 14, read-out: MIC90 (all organisms)
  MIC90: 16 µg/mL
336 h, MITT, combined 240 mg QD and BID, Day 14, read-out: Highest MIC, MIC50
  MIC50: 8 µg/mL
336 h, MITT, combined 240 mg QD and BID, Day 14, read-out: Highest MIC, MIC90
  MIC90: 32 µg/mL
